Laboratory results from patent US20100056522A1, “INTRAOCULAR PRESSURE-LOWERING AGENT COMPRISING COMPOUND HAVING HISTONE DEACETYLASE INHIBITOR EFFECT AS ACTIVE INGREDIENT” (Santen Pharmaceutical Co., Ltd., priority 2007, published 2010).

Experiments:
[1] = test system: TM-1 cells (human trabecular meshwork cell line); experiment: Test for evaluation of effect of morphological change on trabecular meshwork cells (cell shape index); type: cell-based; conditions: 10 μM, 24 hours, control CSI 0.679, lower CSI indicates greater morphological change
Experimental: As a method for evaluating a cellular morphological change, an evaluation system using the cell shape index (hereinafter referred to as “CSI”) as an index has been reported in The Journal of Clinical Investigation, 103, 1141-1150 (1999). Therefore, according to the method described in the above document, an effect of morphological change by the present compounds on trabecular meshwork cells was evaluated.
A human trabecular meshwork cell line (hereinafter referred to as “TM-1 cells”) reported in Investigative Opthalmology & Visual Science, 43, 151-161 (2002) was used.
Culture medium 1: A reagent was prepared by adding fetal bovine serum (10%), L-glutamine (2 mM), amphotericin B (2.5 μg/mL), and gentamicin (25 μg/mL) to Dulbecco's Modified Eagle Medium (hereinafter referred to as “D-MEM”).
Culture medium 2: Fetal bovine serum (3%), L-glutamine (2 mM), amphotericin B (2.5 μg/mL), and gentamicin (25 μg/mL) were added to D-MEM.
Cell staining liquid: A mixed liquid of Calcein-AM (16 μM) and Hoechst 33342 (40 μM) was prepared by diluting a Calcein-AM solution (cytoplasmic staining reagent, manufactured by Dojindo Laboratories) and a Hoechst 33342 solution (nuclear staining reagent, manufactured by Dojindo Laboratories) with D-MEM containing L-glutamine (2 mM), amphotericin B (2.5 μg/mL), and gentamicin (25 μg/mL).
TM-1 cells subcultured at 37° C. in a 8% carbon dioxide gas atmosphere were treated with a trypsin/EDTA solution (0.05% trypsin and 0.53 mM tetrasodium ethylenediaminetetraacetate) at 24 hours before performing a drug treatment mentioned below and seeded on a 96-well culture plate. The culture medium 1 was used for the subculture of the cells. The culture medium 2 was used for the cell culture after seeding the cells on the plate.
A test compound was dissolved in dimethyl sulfoxide, whereby a 5 mM solution was prepared. Then, the resulting solution was diluted with the culture medium 2, whereby a 200 μM test compound solution was prepared.
It has been reported that Y-27632 which is a Rho kinase inhibitor induces a morphological change in trabecular meshwork cells in Investigative Opthalmology & Visual Science, 42, 137-144 (2001). Therefore, Y-27632 (produced according to the method described in WO 90/05723) was used as a positive control, and dissolved in dimethyl sulfoxide in the same manner as the test compound, whereby a 5 mM solution was prepared, and then, the resulting solution was diluted with the culture medium 2, whereby a 200 μM positive control compound solution was prepared.
1) To a 96-well culture plate, a solution of TM-1 cells adjusted to a cell density of […] was added in an amount of 95 μL (1.5×10^4 cells) per well.
2) Incubation was performed at 37° C. in a 8% carbon dioxide gas atmosphere for 24 hours.
3) The test compound solution or positive control compound solution was added in an amount of 5 μL per well (the final concentration of the test compound or positive control compound was 10 μM). As a control, the culture medium 2 containing dimethyl sulfoxide (4%) was added in an amount of 5 μL per well.
4) Incubation was performed at 37° C. in a 8% carbon dioxide gas atmosphere for 24 hours.
5) The cell staining liquid was added in an amount of 10 μL per well.
6) Incubation was performed at 37° C. in a 8% carbon dioxide gas atmosphere for 1 hour to stain the cells.
7) A 37% formaldehyde solution was added in an amount of 10 μL per well.
8) Incubation was performed at room temperature for 1 hour to fix the cells.
9) Washing with phosphate-buffered saline was performed.
10) Using Array Scan Vti HCS reader (manufactured by Cellomics), images of stained cells magnified with a 20-fold objective lens were captured in 80 fields (10 fields×8 wells) per test compound addition group.
11) CSI was calculated for each cell and an average value was obtained for each test compound addition group.
CSI was calculated using the following equation.
CSI=4π×(Cell Area)/(Cell Perimeter)^2

[2] = test system: HDAC (HeLa nuclear extract); experiment: Test for evaluation of an HDAC inhibitory effect (HDAC Fluorimetric Assay/Drug Discovery Kit, Biomol); type: biochemical; conditions: final concentration of test compound 30 μM, rates of more than 100% are shown as 100%
Experimental: Using HDAC Fluorimetric Assay/Drug Discovery Kit (manufactured by Biomol), an HDAC inhibitory effect of the present compounds was measured according to the protocol included with the kit. The kit contains Buffer, HeLa nuclear extract (includes an HDAC), Substrate, Developer and Trichostatin A (an HDAC inhibitor).
A test compound was dissolved in dimethyl sulfoxide, whereby a 2 mg/mL solution was prepared. Then, the resulting solution was diluted with Buffer containing 5% dimethyl sulfoxide, whereby a 150 μM test compound solution was prepared.
1) To a 384-well culture plate, the test compound solution was added in an amount of 2 μL per well.
2) HeLa nuclear extract was diluted 30-fold with Buffer. The resulting solution was added in an amount of 3 μL per well and then, incubation was performed at 37° C. for 2 hours.
3) Substrate was diluted 500-fold with Buffer. The resulting solution was added in an amount of 5 μL per well (the final concentration of the test compound was 30 μM) and then, incubation was performed at 37° C. for 10 minutes.
4) Developer was diluted 20-fold with Buffer and Trichostatin A (2 μM) was added to it. The resulting solution was added in an amount of 10 μL per well and then, incubation was performed at room temperature for 15 minutes.
5) The fluorescence intensity of each well was measured using multilabel counter ARVO (manufactured by Wallac) with excitation at 360 nm and emission at 460 nm.
6) A control data was obtained from the same experiment except that Buffer containing 5% DMSO was added instead of the test compound solution as the above-mentioned procedure from 1) to 5).
7) A blank data was obtained from the same experiment except that Buffer containing 5% DMSO was added instead of the test compound solution and that Buffer was added instead of Hela nuclear extract as the above-mentioned procedure from 1) to 5).
Enzyme inhibitory rate (%) was calculated using the following equation.
(Enzyme Inhibitory Rate(%))=100×[1−{(Fluorescence Intensity of Test Compound Solution)−(Florescence Intensity of Blank)}/{(Florescence Intensity of Control)−(Florescence Intensity of Blank)}]

**Q.** With Nc1ccccc1NC(=O)c1ccc(CN(CCO)C(=O)Nc2ccc3c(c2)OCCO3)cn1 [Compound 2-10, N-(2-Aminophenyl)-5-[3-(2,3-dihydrobenzo[1,4]dioxin-6-yl)-1-(2-hydroxyethyl)ureidomethyl]pyridine-2-carboxylic acid amide] as the molecule, how does the CSI [1] read?
**A.** 0.582

**Q.** What about the “Enzyme Inhibitory Rate (%)” value [2] of the same molecule?
**A.** 99%

**Q.** For CN(C)CCCN(Cc1ccc(C(=O)Nc2ccccc2N)nc1)C(=O)Nc1nc2ccccc2[nH]1 [Compound 1-31, N-(2-Aminophenyl)-5-[3-(1H-benzimidazol-2-yl)-1-(3-dimethylaminopropyl)ureidomethyl]pyridine-2-carboxylic acid amide], which CSI [1] is on record?
**A.** 0.551

**Q.** And the “Enzyme Inhibitory Rate (%)” value [2]?
**A.** 99%

**Q.** Nc1ccccc1NC(=O)c1ccc(CN(CCCCN2CCOCC2)C(=O)Nc2ccc3c(c2)OCCO3)cn1 [Compound 1-90, N-(2-Aminophenyl)-5-[3-(2,3-dihydrobenzo[1,4]dioxin-6-yl)-1-[4-(morpholin-4-yl)butyl]ureidomethyl]pyridine-2-carboxylic acid amide] was tested. Which CSI [1] did it give?
**A.** 0.480

**Q.** And the “Enzyme Inhibitory Rate (%)” value [2]?
**A.** 98%

**Q.** CN(C)CCCN(Cc1ccc(C(=O)Nc2ccccc2N)nc1)C(=O)NCC(=O)c1ccccc1 [Compound 1-40, N-(2-Aminophenyl)-5-[1-(3-dimethylaminopropyl)-3-(phenylcarbonylmethyl)ureidomethyl]pyridine-2-carboxylic acid amide] was tested. Which CSI [1] did it give?
**A.** 0.572

**Q.** What about the “Enzyme Inhibitory Rate (%)” value [2] of the same molecule?
**A.** 97%

**Q.** Cc1ccc(NC(=O)N(CCCN(C)C)Cc2ccc(C(=O)Nc3ccccc3N)nc2)cc1F [Compound 1-13, N-(2-Aminophenyl)-5-[1-(3-dimethylaminopropyl)-3-(3-fluoro-4-methylphenyl)ureidomethyl]pyridine-2-carboxylic acid amide] was tested. Which CSI [1] did it give?
**A.** 0.545

**Q.** What about the “Enzyme Inhibitory Rate (%)” value [2] of the same molecule?
**A.** 100%

**Q.** Which CSI [1] does the source give for Cc1cccc(NC(=O)N(CCCN2CCC(C)CC2)Cc2ccc(C(=O)Nc3ccccc3N)nc2)c1 [Compound 1-116, N-(2-Aminophenyl)-5-[3-(3-methylphenyl)-1-[3-(4-methylpiperidin-1-yl)propyl]ureidomethyl]pyridine-2-carboxylic acid amide] here?
**A.** 0.455

**Q.** What about the “Enzyme Inhibitory Rate (%)” value [2] of the same molecule?
**A.** 100%

**Q.** With CN1CCN(CCCN(Cc2ccc(C(=O)Nc3ccccc3N)nc2)C(=O)Nc2ccc3c(c2)OCCO3)CC1 [Compound 1-68, N-(2-Aminophenyl)-5-[3-(2,3-dihydrobenzo[1,4]dioxin-6-yl)-1-[3-(4-methylpiperazin-1-yl)propyl]ureidomethyl]pyridine-2-carboxylic acid amide] as the molecule, how does the CSI [1] read?
**A.** 0.502

**Q.** And the “Enzyme Inhibitory Rate (%)” value [2]?
**A.** 99%

**Q.** Which results are given for Nc1ccccc1NC(=O)c1ccc(CN(CCCN2CCOCC2)C(=O)Nc2ccc3c(c2)CCO3)cn1 [Compound 1-38, N-(2-Aminophenyl)-5-[3-(2,3-dihydro-1-benzofuran-5-yl)-1-[3-(morpholin-4-yl)propyl]ureidomethyl]pyridine-2-carboxylic acid amide]?
**A.** CSI [1]: 0.575; Enzyme Inhibitory Rate (%) [2]: 97%

**Q.** For CN(C)c1ccc(NC(=O)N(CCCN2CCOCC2)Cc2ccc(C(=O)Nc3ccccc3N)nc2)cc1 [Compound 2-1, N-(2-Aminophenyl)-5-[3-(4-dimethylaminophenyl)-1-[3-(morpholin-4-yl)propyl]ureidomethyl]pyridine-2-carboxylic acid amide], which CSI [1] is on record?
**A.** 0.574

**Q.** What about the “Enzyme Inhibitory Rate (%)” value [2] of the same molecule?
**A.** 98%

**Q.** For Cc1cccc(NC(=O)N(CCN(C)C)Cc2ccc(C(=O)Nc3ccccc3N)nc2)c1 [Compound 1-79, N-(2-Aminophenyl)-5-[1-(2-dimethylaminoethyl)-3-(3-methylphenyl)ureidomethyl]pyridine-2-carboxylic acid amide], which CSI [1] is on record?
**A.** 0.497

**Q.** What about the “Enzyme Inhibitory Rate (%)” value [2] of the same molecule?
**A.** 98%

**Q.** What does the source list for CN(C)c1ccc(C(=O)NCCCCCCC(=O)NO)cc1 [M 344, 4-Dimethylamino-N-(6-hydroxycarbamoylhexyl)benzamide, reference compound]?
**A.** CSI [1]: 0.500; Enzyme Inhibitory Rate (%) [2]: 99%

**Q.** How did the CSI [1] turn out when CN(C)CCN(Cc1ccc(C(=O)Nc2ccccc2N)nc1)C(=O)Nc1cccc(F)c1 [Compound 1-55, N-(2-Aminophenyl)-5-[1-(2-dimethylaminoethyl)-3-(3-fluorophenyl)ureidomethyl]pyridine-2-carboxylic acid amide] was run?
**A.** 0.525

**Q.** What about the “Enzyme Inhibitory Rate (%)” value [2] of the same molecule?
**A.** 98%

**Q.** Which results are given for CN(C)CCCN(Cc1ccc(C(=O)Nc2ccccc2N)nc1)C(=O)Nc1ccc(F)c(F)c1 [Compound 1-4, N-(2-Aminophenyl)-5-[3-(3,4-difluorophenyl)-1-(3-dimethylaminopropyl)ureidomethyl]pyridine-2-carboxylic acid amide]?
**A.** CSI [1]: 0.556; Enzyme Inhibitory Rate (%) [2]: 100%

**Q.** Which CSI [1] does the source give for COc1ccccc1NC(=O)N(CCCCN1CCOCC1)Cc1ccc(C(=O)Nc2ccccc2N)nc1 [Compound 1-115, N-(2-Aminophenyl)-5-[3-(2-methoxyphenyl)-1-[4-(morpholin-4-yl)butyl]ureidomethyl]pyridine-2-carboxylic acid amide] here?
**A.** 0.467

**Q.** And the “Enzyme Inhibitory Rate (%)” value [2]?
**A.** 97%

**Q.** How did the CSI [1] turn out when CN(C)CCCN(Cc1ccc(C(=O)Nc2ccccc2N)nc1)C(=O)Nc1ccc2c(c1)OCCO2 [Compound 1-2, N-(2-Aminophenyl)-5-[3-(2,3-dihydrobenzo[1,4]dioxin-6-yl)-1-(3-dimethylaminopropyl)ureidomethyl]pyridine-2-carboxylic acid amide] was run?
**A.** 0.516

**Q.** And the “Enzyme Inhibitory Rate (%)” value [2]?
**A.** 100%

**Q.** Which results are given for CN(C)CCCN(Cc1ccc(C(=O)Nc2ccccc2N)nc1)C(=O)Nc1ccc(C#N)cc1 [Compound 1-20, N-(2-Aminophenyl)-5-[3-(4-cyanophenyl)-1-(3-dimethylaminopropyl)ureidomethyl]pyridine-2-carboxylic acid amide]?
**A.** CSI [1]: 0.516; Enzyme Inhibitory Rate (%) [2]: 99%

**Q.** Which results are given for Cc1cc(NC(=O)N(CCCN(C)C)Cc2ccc(C(=O)Nc3ccccc3N)nc2)ccc1F [Compound 1-14, N-(2-Aminophenyl)-5-[1-(3-dimethylaminopropyl)-3-(4-fluoro-3-methylphenyl)ureidomethyl]pyridine-2-carboxylic acid amide]?
**A.** CSI [1]: 0.520; Enzyme Inhibitory Rate (%) [2]: 100%
